According to PubChem BioAssay (NCI):
Values after ≈ are worked out from the molar mass of the structure shown.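 96-well plates; 48 h exposure; 5 concentrations. Endpoints by linear interpolation between flanking doses. Not reached: highest tested concentration assigned. GI50: concentration for 50% inhibition of growth. TGI: concentration producing complete growth inhibition.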

How the values were obtained:
Assay in all cases: inhibition of tumour cell growth, NCI panel, 48 h
A549 NSCLC = tested on: A549 NSCLC
MDA-N = tested on: MDA-N
NCI-H23 lung = tested on: NCI-H23 lung
OVCAR-5 ovarian = tested on: OVCAR-5 ovarian
SF-295 CNS = tested on: SF-295 CNS
SK-MEL-5 melanoma = tested on: SK-MEL-5 melanoma
SK-OV-3 ovarian = tested on: SK-OV-3 ovarian
SN12C renal = tested on: SN12C renal
TK-10 renal = tested on: TK-10 renal
UACC-257 melanoma = tested on: UACC-257 melanoma

## CC(=O)c1cc2ccccc2n(O)c1=N
A549 NSCLC
  TGI: > 100 µM
MDA-N
  TGI: > 100 µM
NCI-H23 lung
  TGI: > 100 µM
OVCAR-5 ovarian
  TGI: > 100 µM
SF-295 CNS
  TGI: > 100 µM
SK-MEL-5 melanoma
  TGI: > 100 µM
SK-OV-3 ovarian
  TGI: > 100 µM
SN12C renal
  TGI: > 100 µM
TK-10 renal
  TGI: > 100 µM
UACC-257 melanoma
  TGI: > 100 µM

## [N-]=[N+]=Nc1ccc(CNc2cc(=O)[nH]c(=O)[nH]2)cc1
A549 NSCLC
  TGI: > 100 µM
MDA-N
  TGI: > 100 µM
NCI-H23 lung
  TGI: > 100 µM
OVCAR-5 ovarian
  TGI: > 100 µM
SF-295 CNS
  TGI: > 100 µM
SK-MEL-5 melanoma
  TGI: > 100 µM
SK-OV-3 ovarian
  TGI: > 100 µM
SN12C renal
  TGI: > 100 µM
TK-10 renal
  TGI: > 100 µM
UACC-257 melanoma
  TGI: > 100 µM

## CC(=O)N1CCN(C23OC4(N5CCN(C(C)=O)CC5)C5C6CC(C7C6C4C72)C53)CC1 (stereo not given)
A549 NSCLC
  TGI: > 100 µM
MDA-N
  TGI: > 100 µM
NCI-H23 lung
  TGI: > 100 µM
OVCAR-5 ovarian
  TGI: > 100 µM
SF-295 CNS
  TGI: > 100 µM
SK-MEL-5 melanoma
  TGI: > 100 µM
SK-OV-3 ovarian
  TGI: > 100 µM
SN12C renal
  TGI: > 100 µM
TK-10 renal
  TGI: > 100 µM
UACC-257 melanoma
  TGI: > 100 µM

## Cc1cc(C)n(CN(Cn2nc(C)cc2C)C2CCCCC2)n1
A549 NSCLC
  TGI: > 100 µM
MDA-N
  TGI: 34.8 µM
NCI-H23 lung
  TGI: 56.8 µM
OVCAR-5 ovarian
  TGI: 53.8 µM
SF-295 CNS
  TGI: > 100 µM
SK-MEL-5 melanoma
  TGI: > 100 µM
SK-OV-3 ovarian
  TGI: > 100 µM
SN12C renal
  TGI: 66.3 µM
TK-10 renal
  TGI: > 100 µM
UACC-257 melanoma
  TGI: 78.4 µM

## CN(C)CCNc1ncnc2nc(-c3ccc4ccccc4c3)[nH]c12
A549 NSCLC
  TGI: > 100 µM
MDA-N
  TGI: > 100 µM
NCI-H23 lung
  TGI: > 100 µM
OVCAR-5 ovarian
  TGI: > 100 µM
SF-295 CNS
  TGI: > 100 µM
SK-MEL-5 melanoma
  TGI: > 100 µM
SK-OV-3 ovarian
  TGI: > 100 µM
SN12C renal
  TGI: > 100 µM
TK-10 renal
  TGI: > 100 µM
UACC-257 melanoma
  TGI: > 100 µM

## O=C1C(Br)=C(c2ccccc2)S(=O)c2ccccc21 (stereo not given)
A549 NSCLC
  TGI: 62 µM
MDA-N
  TGI: 20.4 µM
NCI-H23 lung
  TGI: 39.7 µM
OVCAR-5 ovarian
  TGI: 41 µM
SF-295 CNS
  TGI: 34.6 µM
SK-MEL-5 melanoma
  TGI: 24.7 µM
SK-OV-3 ovarian
  TGI: 32.9 µM
SN12C renal
  TGI: 31 µM
TK-10 renal
  TGI: 32.2 µM
UACC-257 melanoma
  TGI: 25.8 µM

## Cn1nc(S(N)(=O)=O)s/c1=N/C(N)=S
A549 NSCLC
  TGI: > 100 µM
MDA-N
  TGI: > 100 µM
NCI-H23 lung
  TGI: > 100 µM
OVCAR-5 ovarian
  TGI: > 100 µM
SF-295 CNS
  TGI: > 100 µM
SK-MEL-5 melanoma
  TGI: > 100 µM
SK-OV-3 ovarian
  TGI: > 100 µM
SN12C renal
  TGI: > 100 µM
TK-10 renal
  TGI: > 100 µM
UACC-257 melanoma
  TGI: > 100 µM

## CC(C)OP(=O)(OC(C)C)C(C(C)C)N(C)/C(F)=N/C(F)(F)F (stereo not given)
A549 NSCLC
  TGI: > 100 µM
MDA-N
  TGI: > 100 µM
NCI-H23 lung
  TGI: > 100 µM
OVCAR-5 ovarian
  TGI: > 100 µM
SF-295 CNS
  TGI: > 100 µM
SK-MEL-5 melanoma
  TGI: > 100 µM
SK-OV-3 ovarian
  TGI: > 100 µM
SN12C renal
  TGI: > 100 µM
TK-10 renal
  TGI: > 100 µM
UACC-257 melanoma
  TGI: > 100 µM

## COc1cc(/C=C2/N=C(c3ccccc3)N(C3=NNC4(C(=O)N3)c3ccccc3-c3ccccc34)NC2=O)ccc1O
A549 NSCLC
  GI50: 15 µg/mL (≈ 27 µM)
  TGI: 15 µg/mL
MDA-N
  GI50: 31.1 µg/mL (≈ 55.8 µM)
  TGI: 65 µg/mL
NCI-H23 lung
  GI50: 15 µg/mL (≈ 27 µM)
  TGI: 15 µg/mL
OVCAR-5 ovarian
  GI50: 44.6 µg/mL (≈ 80.1 µM)
  TGI: > 150 µg/mL
SF-295 CNS
  GI50: 19.7 µg/mL (≈ 35.5 µM)
  TGI: 42.5 µg/mL
SK-MEL-5 melanoma
  GI50: 20.3 µg/mL (≈ 36.5 µM)
  TGI: 39.6 µg/mL
SK-OV-3 ovarian
  GI50: 19 µg/mL (≈ 34.1 µM)
  TGI: 37.8 µg/mL
SN12C renal
  GI50: 25.6 µg/mL (≈ 46 µM)
  TGI: 56.8 µg/mL
TK-10 renal
  GI50: 35.8 µg/mL (≈ 64.3 µM)
  TGI: 78.2 µg/mL
UACC-257 melanoma
  GI50: 27.2 µg/mL (≈ 49 µM)
  TGI: 51.8 µg/mL

## COc1cc(C2SCC(=O)N2c2ccc(Oc3ccc(Cl)cc3)c(Cl)c2)cc(OC)c1OC (stereo not given)
A549 NSCLC
  TGI: 69.2 µM
MDA-N
  TGI: 45.1 µM
NCI-H23 lung
  TGI: > 100 µM
OVCAR-5 ovarian
  TGI: 55.7 µM
SF-295 CNS
  TGI: 34.6 µM
SK-MEL-5 melanoma
  TGI: 32.1 µM
SK-OV-3 ovarian
  TGI: 33.6 µM
SN12C renal
  TGI: 56.2 µM
TK-10 renal
  TGI: 33.9 µM
UACC-257 melanoma
  TGI: 33.3 µM

## COc1ccc(OC)c2c1C1CCC(=O)N1CN2C(C)=O (stereo not given)
A549 NSCLC
  TGI: > 100 µM
MDA-N
  TGI: > 100 µM
NCI-H23 lung
  TGI: > 100 µM
OVCAR-5 ovarian
  TGI: > 100 µM
SF-295 CNS
  TGI: > 100 µM
SK-MEL-5 melanoma
  TGI: > 100 µM
SK-OV-3 ovarian
  TGI: > 100 µM
SN12C renal
  TGI: > 100 µM
TK-10 renal
  TGI: > 100 µM
UACC-257 melanoma
  TGI: > 100 µM

## Cc1c(NC2(C)C(=O)N(/N=C/c3ccccc3)N=C2c2ccccc2)n[nH]c1-c1ccccc1 (stereo not given)
A549 NSCLC
  TGI: > 100 µM
MDA-N
  TGI: > 100 µM
NCI-H23 lung
  TGI: > 100 µM
OVCAR-5 ovarian
  TGI: > 100 µM
SF-295 CNS
  TGI: > 100 µM
SK-MEL-5 melanoma
  TGI: > 100 µM
SK-OV-3 ovarian
  TGI: > 100 µM
SN12C renal
  TGI: > 100 µM
TK-10 renal
  TGI: > 100 µM
UACC-257 melanoma
  TGI: > 100 µM

## COC(=O)C1(Cc2ccccc2)Cc2ccccc2C1
A549 NSCLC
  TGI: > 100 µM
MDA-N
  TGI: 49.3 µM
NCI-H23 lung
  TGI: > 100 µM
OVCAR-5 ovarian
  TGI: > 100 µM
SF-295 CNS
  TGI: 99.2 µM
SK-MEL-5 melanoma
  TGI: 31.9 µM
SK-OV-3 ovarian
  TGI: > 100 µM
SN12C renal
  TGI: > 100 µM
TK-10 renal
  TGI: > 100 µM
UACC-257 melanoma
  TGI: 65.6 µM

## C[n+]1c2ccccc2c(C(=O)Nc2ccc(S(=O)(=O)N=C(N)N)cc2)c2ccccc21
A549 NSCLC
  TGI: > 100 µM
MDA-N
  TGI: > 100 µM
NCI-H23 lung
  TGI: > 100 µM
OVCAR-5 ovarian
  TGI: > 100 µM
SF-295 CNS
  TGI: > 100 µM
SK-MEL-5 melanoma
  TGI: > 100 µM
SK-OV-3 ovarian
  TGI: > 100 µM
SN12C renal
  TGI: > 100 µM
TK-10 renal
  TGI: > 100 µM
UACC-257 melanoma
  TGI: > 100 µM

## C=C(C)C1CC=C(C)C2(C1)OCC(C)(C)C(C)O2 (stereo not given)
A549 NSCLC
  TGI: 34.5 µM
MDA-N
  TGI: 47.4 µM
NCI-H23 lung
  TGI: 48.4 µM
OVCAR-5 ovarian
  TGI: 38.5 µM
SF-295 CNS
  TGI: 48.2 µM
SK-MEL-5 melanoma
  TGI: 29.2 µM
SK-OV-3 ovarian
  TGI: 53.7 µM
SN12C renal
  TGI: 33.4 µM
TK-10 renal
  TGI: > 100 µM
UACC-257 melanoma
  TGI: 81.9 µM

## O=C(N[C@H]1c2ccsc2/C(=N/O)[C@H]1O)C(F)(F)F
A549 NSCLC
  TGI: > 100 µM
MDA-N
  TGI: > 100 µM
NCI-H23 lung
  TGI: > 100 µM
OVCAR-5 ovarian
  TGI: > 100 µM
SF-295 CNS
  TGI: > 100 µM
SK-MEL-5 melanoma
  TGI: > 100 µM
SK-OV-3 ovarian
  TGI: > 100 µM
SN12C renal
  TGI: > 100 µM
TK-10 renal
  TGI: > 100 µM
UACC-257 melanoma
  TGI: > 100 µM

## S=C(S)NCC1CCC(CNC(=S)S)CC1 (stereo not given)
A549 NSCLC
  TGI: > 100 µM
MDA-N
  TGI: 81.4 µM
NCI-H23 lung
  TGI: > 100 µM
OVCAR-5 ovarian
  TGI: > 100 µM
SF-295 CNS
  TGI: > 100 µM
SK-MEL-5 melanoma
  TGI: > 100 µM
SK-OV-3 ovarian
  TGI: > 100 µM
SN12C renal
  TGI: 44 µM
TK-10 renal
  TGI: 51.7 µM
UACC-257 melanoma
  TGI: 87.1 µM
